# Measurements taken from PubChem BioAssay AID190 (DTP/NCI, 2004).
# “And” between values parts separate entries of the source, which are not always exact repeats. Identical values can stand only once. Toxic doses and inconclusive results are not listed.
# System: AKR/Lw mice, AKR lymphoma ip, median survival T/C
# Test: NCI In Vivo Anticancer Drug Screen. Data for tumor model Lymphoma AKR (Transplanted) (intraperitoneal) in AKR/Lw mice
# Conditions: endpoint: median survival time, higher = longer survival
# Experimental: The antitumor activity of compounds was measured in mice bearing transplantable tumors. Survival or tumor size were measured and the results are expressed as the measurement made in the treated group (T) divided by the measurement made in the vehicle treated control group (C). The tumor model used in this assay is Lymphoma AKR (Transplanted) (intraperitoneal) in AKR/Lw mice
# [1] = dose: 100.0 mg/kg/injection, schedule: Q01DX001 (ip), vehicle: saline
# [2] = dose: 200.0 mg/kg/injection, schedule: Q01DX001 (ip), vehicle: saline
# [3] = dose: 400.0 mg/kg/injection, schedule: Q01DX001 (ip), vehicle: saline
# [4] = dose: 400.0 mg/kg/injection, schedule: Q01DX001 (ip), vehicle: Klucel (hydroxypropylcellulose) (HPC)
# [5] = dose: 0.05 mg/kg/injection, schedule: Q01DX010 (ip), vehicle: saline
# [6] = dose: 0.1 mg/kg/injection, schedule: Q01DX010 (ip), vehicle: saline
# [7] = dose: 100.0 mg/kg/injection, schedule: Q01DX001 (ip), vehicle: Klucel (hydroxypropylcellulose) (HPC)
# [8] = dose: 100.0 mg/kg/injection, schedule: Q04DX003 (ip), vehicle: Klucel (hydroxypropylcellulose) (HPC)
# [9] = dose: 100.0 mg/kg/injection, schedule: Q04DX003 (ip), vehicle: saline
# [10] = dose: 200.0 mg/kg/injection, schedule: Q01DX001 (ip), vehicle: Klucel (hydroxypropylcellulose) (HPC)
# [11] = dose: 200.0 mg/kg/injection, schedule: Q04DX003 (ip), vehicle: Klucel (hydroxypropylcellulose) (HPC)
# [12] = dose: 400.0 mg/kg/injection, schedule: Q04DX003 (ip), vehicle: Klucel (hydroxypropylcellulose) (HPC)
smiles,measurement,setting,value
C[N+]1(C)Cc2ccccc2-c2ccccc2C1,T/C,"dose: 50.0 mg/kg/injection, schedule: Q01DX001 (ip), vehicle: saline",94 % of control
ClC1=C(Cl)C2(Cl)C3(Cl)C(Cl)=C(Cl)C(Cl)(C34OCCO4)C2(Cl)C12OCCO2 (stereo not given),T/C,[1],96 % of control
same,T/C,[2],108 % of control
same,T/C,[3],108 % of control
COc1cc(N)c2ncccc2c1SC,T/C,[2],102 % of control
same,T/C,[3],106 % of control
COc1ccc(N2C(=O)CC(Sc3ccccc3N)C2=O)cc1 (stereo not given),T/C,[4],87 % of control
COc1cccc2c1C(=O)c1c(O)c3c(c(O)c1C2=O)C[C@@](O)(C(C)=O)C[C@@H]3OC1CC(N)C(O)C(C)O1 (stereo not given in full),T/C,"dose: 0.02 mg/kg/injection, schedule: Q01DX015 (ip), vehicle: saline",100 % of control
same,T/C,[5],112 % of control
same,T/C,"dose: 0.05 mg/kg/injection, schedule: Q01DX015 (ip), vehicle: saline",115 % of control
same,T/C,[6],119 % of control
same,T/C,"dose: 0.1 mg/kg/injection, schedule: Q01DX015 (ip), vehicle: saline",101 % of control and 110 % of control
same,T/C,"dose: 0.18 mg/kg/injection, schedule: Q01DX015 (ip), vehicle: saline",106 % of control
same,T/C,"dose: 0.2 mg/kg/injection, schedule: Q01DX010 (ip), vehicle: saline",122 % of control
same,T/C,"dose: 0.2 mg/kg/injection, schedule: Q01DX015 (ip), vehicle: saline",106 % of control
same,T/C,"dose: 0.3 mg/kg/injection, schedule: Q01DX015 (ip), vehicle: saline",99 % of control
same,T/C,"dose: 0.37 mg/kg/injection, schedule: Q01DX015 (ip), vehicle: saline",121 % of control
same,T/C,"dose: 0.4 mg/kg/injection, schedule: Q01DX015 (ip), vehicle: saline",103 % of control and 113 % of control
Cc1c2ccncc2c(C)c2c1[nH]c1ccccc12,T/C,"dose: 1.2 mg/kg/injection, schedule: Q01DX009 (ip), vehicle: Klucel (hydroxypropylcellulose) (HPC)",87 % of control
same,T/C,"dose: 1.25 mg/kg/injection, schedule: Q01DX009 (ip), vehicle: saline",165 % of control
same,T/C,"dose: 1.5 mg/kg/injection, schedule: Q01DX009 (ip), vehicle: saline",90 % of control and 118 % of control
same,T/C,"dose: 3.0 mg/kg/injection, schedule: Q01DX009 (ip), vehicle: saline",104 % of control and 121 % of control
same,T/C,"dose: 5.0 mg/kg/injection, schedule: Q01DX009 (ip), vehicle: saline",111 % of control
same,T/C,"dose: 6.0 mg/kg/injection, schedule: Q01DX009 (ip), vehicle: saline",116 % of control
same,T/C,"dose: 7.5 mg/kg/injection, schedule: Q04DX003 (ip), vehicle: Klucel (hydroxypropylcellulose) (HPC)",88 % of control
same,T/C,"dose: 7.5 mg/kg/injection, schedule: Q04DX003 (ip), vehicle: saline",96 % of control
same,T/C,"dose: 10.0 mg/kg/injection, schedule: Q01DX009 (ip), vehicle: saline",152 % of control
same,T/C,"dose: 12.5 mg/kg/injection, schedule: Q01DX001 (ip), vehicle: Klucel (hydroxypropylcellulose) (HPC)",97 % of control
same,T/C,"dose: 12.5 mg/kg/injection, schedule: Q01DX001 (ip), vehicle: saline",124 % of control
same,T/C,"dose: 15.0 mg/kg/injection, schedule: Q01DX009 (ip), vehicle: Klucel (hydroxypropylcellulose) (HPC)",103 % of control
same,T/C,"dose: 15.0 mg/kg/injection, schedule: Q04DX003 (ip), vehicle: Klucel (hydroxypropylcellulose) (HPC)",119 % of control
same,T/C,"dose: 15.0 mg/kg/injection, schedule: Q04DX003 (ip), vehicle: saline",112 % of control
same,T/C,"dose: 18.75 mg/kg/injection, schedule: Q04DX003 (ip), vehicle: saline",111 % of control and 116 % of control and 117 % of control
same,T/C,"dose: 18.8 mg/kg/injection, schedule: Q04DX003 (ip), vehicle: Klucel (hydroxypropylcellulose) (HPC)",105 % of control
same,T/C,"dose: 20.0 mg/kg/injection, schedule: Q01DX009 (ip), vehicle: Klucel (hydroxypropylcellulose) (HPC)",86 % of control
same,T/C,"dose: 20.0 mg/kg/injection, schedule: Q01DX009 (ip), vehicle: saline",111 % of control
same,T/C,"dose: 20.0 mg/kg/injection, schedule: Q04DX003 (ip), vehicle: Klucel (hydroxypropylcellulose) (HPC)",119 % of control
same,T/C,"dose: 25.0 mg/kg/injection, schedule: Q01DX001 (ip), vehicle: Klucel (hydroxypropylcellulose) (HPC)",123 % of control
same,T/C,"dose: 25.0 mg/kg/injection, schedule: Q01DX001 (ip), vehicle: saline",120 % of control
same,T/C,"dose: 25.0 mg/kg/injection, schedule: Q01DX005 (ip), vehicle: water",263 % of control
same,T/C,"dose: 25.0 mg/kg/injection, schedule: Q04DX003 (ip), vehicle: Klucel (hydroxypropylcellulose) (HPC)",153 % of control
same,T/C,"dose: 30.0 mg/kg/injection, schedule: Q04DX003 (ip), vehicle: Klucel (hydroxypropylcellulose) (HPC)",104 % of control and 111 % of control
same,T/C,"dose: 35.0 mg/kg/injection, schedule: Q04DX003 (ip), vehicle: Klucel (hydroxypropylcellulose) (HPC)",116 % of control
same,T/C,"dose: 50.0 mg/kg/injection, schedule: Q01DX001 (ip), vehicle: Klucel (hydroxypropylcellulose) (HPC)",118 % of control
same,T/C,"dose: 50.0 mg/kg/injection, schedule: Q01DX005 (ip), vehicle: water",197 % of control
same,T/C,"dose: 50.0 mg/kg/injection, schedule: Q04DX003 (ip), vehicle: Klucel (hydroxypropylcellulose) (HPC)",153 % of control
same,T/C,"dose: 50.0 mg/kg/injection, schedule: Q04DX003 (ip), vehicle: water",226 % of control
same,T/C,"dose: 75.0 mg/kg/injection, schedule: Q01DX001 (ip), vehicle: Klucel (hydroxypropylcellulose) (HPC)",123 % of control
same,T/C,[7],111 % of control and 121 % of control
same,T/C,[8],107 % of control
same,T/C,[9],100 % of control
same,T/C,"dose: 100.0 mg/kg/injection, schedule: Q04DX003 (ip), vehicle: water",315 % of control
same,T/C,"dose: 150.0 mg/kg/injection, schedule: Q01DX001 (ip), vehicle: Klucel (hydroxypropylcellulose) (HPC)",102 % of control
same,T/C,"dose: 150.0 mg/kg/injection, schedule: Q01DX001 (ip), vehicle: saline",115 % of control
CN(C)CCCNC(=O)Nc1ccccc1,T/C,[7],103 % of control
same,T/C,[10],93 % of control
COC(=O)C1(C)CCC(c2ccc(C)cc2)=C(CC(=O)O)C1 (stereo not given),T/C,[1],97 % of control
same,T/C,[2],94 % of control
same,T/C,[3],94 % of control
COc1ccccc1Oc1ccc(N=Cc2ccc(C)cc2)cc1,T/C,[7],93 % of control
same,T/C,[8],93 % of control
same,T/C,[10],100 % of control
same,T/C,[11],97 % of control
same,T/C,[4],93 % of control
same,T/C,[12],102 % of control
CC(=O)CCN1C(=O)c2ccccc2C1=O,T/C,[7],105 % of control
same,T/C,[10],105 % of control
same,T/C,[11],97 % of control
same,T/C,[4],102 % of control
same,T/C,[12],89 % of control
OCC1=C(CO)C2(Cl)C(Cl)=C(Cl)C1(Cl)C2(Cl)Cl,T/C,[10],95 % of control
same,T/C,[4],91 % of control
c1ccc(CC(Cc2ccccc2)=[N+]2CCCC2)cc1,T/C,[1],97 % of control
same,T/C,[2],88 % of control
same,T/C,[3],88 % of control
O=C(NC(CSSCC(NC(=O)OCc1ccccc1)C(=O)O)C(=O)O)OCc1ccccc1 (stereo not given),T/C,[1],107 % of control
same,T/C,[9],100 % of control
same,T/C,[2],107 % of control
same,T/C,[3],102 % of control
same,T/C,"dose: 400.0 mg/kg/injection, schedule: Q04DX003 (ip), vehicle: saline",89 % of control
ClCCCNCc1ccccc1,T/C,[1],94 % of control
CCCn1c(=S)[nH]c2ccccc2c1=O,T/C,[7],103 % of control
same,T/C,[10],94 % of control
same,T/C,[4],100 % of control
CC(=O)N(C(C)=O)c1ccc(C)cc1,T/C,[1],93 % of control
same,T/C,[2],104 % of control
same,T/C,[3],104 % of control
Cc1c(N)nc([C@H](CC(N)=O)NC[C@H](N)C(N)=O)nc1C(=O)N[C@H](C(=O)N[C@H](C)[C@@H](O)[C@H](C)C(=O)N[C@H](C(=O)NCCc1nc(-c2nc(C(=O)NCCC[S+](C)C)cs2)cs1)[C@@H](C)O)C(OC1OC(CO)C(O)C(O)C1OC1OC(CO)C(O)C(OC(N)=O)C1O)c1cnc[nH]1 (stereo not given in full),T/C,[5],120 % of control
same,T/C,[6],103 % of control
same,T/C,"dose: 0.25 mg/kg/injection, schedule: Q01DX010 (ip), vehicle: saline",116 % of control
same,T/C,"dose: 0.4 mg/kg/injection, schedule: Q01DX010 (ip), vehicle: saline",113 % of control
same,T/C,"dose: 0.5 mg/kg/injection, schedule: Q01DX010 (ip), vehicle: saline",106 % of control
same,T/C,"dose: 0.75 mg/kg/injection, schedule: Q01DX010 (ip), vehicle: saline",106 % of control
same,T/C,"dose: 1.0 mg/kg/injection, schedule: Q01DX010 (ip), vehicle: saline",100 % of control
same,T/C,"dose: 1.5 mg/kg/injection, schedule: Q01DX010 (ip), vehicle: saline",93 % of control
same,T/C,"dose: 1.9 mg/kg/injection, schedule: Q01DX010 (ip), vehicle: saline",95 % of control
same,T/C,"dose: 2.0 mg/kg/injection, schedule: Q01DX010 (ip), vehicle: saline",100 % of control
O=C1CC2CCCC(C1)S2=O (stereo not given),T/C,[1],113 % of control
same,T/C,[2],89 % of control
same,T/C,[3],97 % of control
